# Patent US8927579B2, “Male contraceptive” (priority 2007, dated 2015)
# Structures can show the parent of a compound that is named as a salt.
# What was measured:
# [1] = test system: longitudinal muscle of human vas deferens; assay: New molecules against contractions to high K+ (120 mM), longitudinal muscle; conditions: for IC50: Homo sapiens, contractions evoked by K+ (120 mM), preliminary data, mean, n=2-3, read-out: Functional inhibitory potencies (IC50 values), Longitudinal muscle; for Selectivity [(C/L)-1]: longitudinal muscle selectivity from IC50 values in circular and longitudinal muscle, K+ (120 mM)
# Source text: (§1) Human vas deferens specimens were obtained after elective vasectomies of healthy fertile men. College ethical approval and the consent of patients were obtained. The specimens were placed in ice-cold Krebs' medium, dissected-free of connective tissue/blood vessels and cut longitudinally into strips (longitudinal muscle preparations; 5-8 mm long & 1 mm wide) or transversely into rings (circular muscle preparations; ˜3 mm in length). The longitudinal and circular muscle preparations were then set up for tension recording (resting tension 5-7 mN) in a Perspex chamber superfused at 2 ml per min with Krebs' medium (36° C.) composed of (mM): NaCl, 118.8; NaHCO3, 25; KCl, 4.7; CaCl2.2H2O, 2.5; KH2PO4, 1.2; MgSO4.7H2O, 1.2; glucose, 11.1; ascorbic acid 0.1 and continuously gassed with 95% O2 and 5% CO2. Contractile responses were recorded via a Harvard type force-displacement transducer. The analog signals were digitised using CIO-Das 16/Jr data acquisition software (Amplicon Liveline, Brighton, UK) and re-plotted on a microcomputer.
# (§2) Tissues were equilibrated for 180 min in Krebs' medium containing inhibitors of extraneuronal and neuronal reuptake of noradrenaline, oestradiol (1 μM) and desipramine (0.1 μM) respectively, inhibitors of catechol-O-methyltransferase and monoamine oxidase, tropolone (10 μM) and iproniazid (10 μM) respectively and the β-adrenoceptor blocker, propranolol (1 μM). At the end of the equilibration period, the tissues were stimulated with noradrenaline (100 μM). […] After 40-45 min in this medium the tissues were stimulated with high [K^+]O (120 mM, Initial response). This was followed by exposure to cumulative concentrations of the new molecules {NIBA(1)XC1, NIBA(14)XN10, NIBA(6)XN3, NIBA(2)XC2, NIBA(53)XN16} or to Krebs' medium containing drug vehicles (time-matched controls). After contact times of 40-60 min at each drug concentration, the tissues were stimulated with high [K^+]o (120 mM). The resulting contractions were measured using computer software developed in-house to measure the total response (i.e. rhythmic activity plus tonic contraction). Contractions obtained in the presence of the new drug molecules were expressed as a percentage of the initial contraction evoked by high [K^+]o (120 mM) before exposure to the drugs.
# [2] = test system: circular muscle of human vas deferens; assay: New molecules against contractions to high K+ (120 mM), circular muscle; conditions: contractions evoked by K+ (120 mM), preliminary data, mean, n=2-3, read-out: Functional inhibitory potencies (IC50 values), Circular muscle
# Source text: as §1, §2
# [3] = test system: sperm emission in patients; conditions: cited from earlier work
# [4] = test system: longitudinal muscle of human vas deferens; assay: Inhibition at fixed concentration of contractions evoked by high K+ in the presence of FPL 64176, longitudinal muscle; conditions: [K+]o 120 mM in the presence of FPL 64176
# Source text: as §1, with “5-10” for “5-8”, “3” for “˜3”, “Harvard-type” for “Harvard type”
# Tissues were equilibrated for 180 min in Krebs' medium containing inhibitors of extraneuronal and neuronal reuptake of noradrenaline, oestradiol (1 μM) and desipramine (0.1 μM) respectively, inhibitors of catechol-O-methyltransferase and monoamine oxidase, tropolone (10 μM) and iproniazid (10 μM) respectively and the β-adrenoceptor blocker, propranolol (1 μM). At the end of the equilibration period, the tissues were stimulated with noradrenaline (100 μM). […] After a contact time of 30-40 min in this medium, different experimental protocols (described below) were adopted in order to • (a) Elucidate the contractile actions of L-type Ca^2+ agonists such as FPL 64176 or Bay K 8644. In these experiments, tissues were exposed to FPL 64176 (0.1-10 μM added cumulatively) or in separate experiments Bay K 8644 (0.1-10 μM added cumulatively). • (b) Investigate the effects of various diphenylalkylamines and conventional L-type Ca^2+ antagonists (methoxyverapamil or nifedipine) on contractions evoked by high concentrations of extracellular potassium (high [K^+]o) in the presence of L-type Ca^2+ agonists, FPL 64176 (1 μM) or Bay K 8644 (1 μM). In this protocol, tissues were stimulated with high [K^+]O (10, 30 and 120 mM at 10-15 min intervals) in normal Krebs' medium, then exposed to L-type Ca^2+ agonists for 20-30 min and subsequently stimulated with high [K^+]O (10, 30 and 120 mM) in the presence of the drugs. These provided the initial responses. […] The resulting contractions were measured (see below) and expressed as a percentage of corresponding initial responses to high [K^+]o evoked in the presence of L-type Ca^2+ agonists (i.e. before exposure to L-type Ca^2+ antagonists). […]
# [5] = test system: circular muscle of human vas deferens; assay: Inhibition at fixed concentration of contractions evoked by high K+ in the presence of FPL 64176, circular muscle; conditions: [K+]o 120 mM in the presence of FPL 64176
# Source text: as §1, with “5-10” for “5-8”, “3” for “˜3”, “Harvard-type” for “Harvard type”
# Tissues were equilibrated for 180 min in Krebs' medium containing inhibitors of extraneuronal and neuronal reuptake of noradrenaline, oestradiol (1 μM) and desipramine (0.1 μM) respectively, inhibitors of catechol-O-methyltransferase and monoamine oxidase, tropolone (10 μM) and iproniazid (10 μM) respectively and the β-adrenoceptor blocker, propranolol (1 μM). At the end of the equilibration period, the tissues were stimulated with noradrenaline (100 μM). […] After a contact time of 30-40 min in this medium, different experimental protocols (described below) were adopted in order to • (a) Elucidate the contractile actions of L-type Ca^2+ agonists such as FPL 64176 or Bay K 8644. In these experiments, tissues were exposed to FPL 64176 (0.1-10 μM added cumulatively) or in separate experiments Bay K 8644 (0.1-10 μM added cumulatively). • (b) Investigate the effects of various diphenylalkylamines and conventional L-type Ca^2+ antagonists (methoxyverapamil or nifedipine) on contractions evoked by high concentrations of extracellular potassium (high [K^+]o) in the presence of L-type Ca^2+ agonists, FPL 64176 (1 μM) or Bay K 8644 (1 μM). In this protocol, tissues were stimulated with high [K^+]O (10, 30 and 120 mM at 10-15 min intervals) in normal Krebs' medium, then exposed to L-type Ca^2+ agonists for 20-30 min and subsequently stimulated with high [K^+]O (10, 30 and 120 mM) in the presence of the drugs. These provided the initial responses. Following this and in the continuous presence of the L-type Ca^2+ agonists, the tissues were exposed additionally to L-type Ca^2+ antagonists (conventional or diphenylalkylamines) or drug-free vehicle medium. After contact times of 25-50 min the tissues were stimulated, first with high [K^+]O (either 30 mM or 120 mM) in order to take account of the well-documented use-dependent action of the diphenylalkylamine Ca^2+ antagonists. Following recovery from the test contraction and after a further 30-40 min, the tissues were then stimulated with high [K^+]o (10, 30 and 120 mM). This protocol is illustrated in FIGS. 3 and 4. The resulting contractions were measured (see below) and expressed as a percentage of corresponding initial responses to high [K^+]o evoked in the presence of L-type Ca^2+ agonists (i.e. before exposure to L-type Ca^2+ antagonists). […]
# [6] = test system: circular muscle of human vas deferens; assay: IC50 against contractions evoked by high K+ (120 mM) in the presence of FPL 64176, circular muscle rings; conditions: contractions evoked by K+ (120 mM) in the presence of FPL 64176 (1 μM), means ± S.E.M.
# Source text: as §1, with “5-10” for “5-8”, “3” for “˜3”, “Harvard-type” for “Harvard type”
# (§3) Tissues were equilibrated for 180 min in Krebs' medium containing inhibitors of extraneuronal and neuronal reuptake of noradrenaline, oestradiol (1 μM) and desipramine (0.1 μM) respectively, inhibitors of catechol-O-methyltransferase and monoamine oxidase, tropolone (10 μM) and iproniazid (10 μM) respectively and the β-adrenoceptor blocker, propranolol (1 μM). At the end of the equilibration period, the tissues were stimulated with noradrenaline (100 μM). […] After a contact time of 30-40 min in this medium, different experimental protocols (described below) were adopted in order to • (a) Elucidate the contractile actions of L-type Ca^2+ agonists such as FPL 64176 or Bay K 8644. In these experiments, tissues were exposed to FPL 64176 (0.1-10 μM added cumulatively) or in separate experiments Bay K 8644 (0.1-10 μM added cumulatively). • (b) Investigate the effects of various diphenylalkylamines and conventional L-type Ca^2+ antagonists (methoxyverapamil or nifedipine) on contractions evoked by high concentrations of extracellular potassium (high [K^+]o) in the presence of L-type Ca^2+ agonists, FPL 64176 (1 μM) or Bay K 8644 (1 μM). In this protocol, tissues were stimulated with high [K^+]O (10, 30 and 120 mM at 10-15 min intervals) in normal Krebs' medium, then exposed to L-type Ca^2+ agonists for 20-30 min and subsequently stimulated with high [K^+]O (10, 30 and 120 mM) in the presence of the drugs. These provided the initial responses. Following this and in the continuous presence of the L-type Ca^2+ agonists, the tissues were exposed additionally to L-type Ca^2+ antagonists (conventional or diphenylalkylamines) or drug-free vehicle medium. After contact times of 25-50 min the tissues were stimulated, first with high [K^+]O (either 30 mM or 120 mM) in order to take account of the well-documented use-dependent action of the diphenylalkylamine Ca^2+ antagonists. Following recovery from the test contraction and after a further 30-40 min, the tissues were then stimulated with high [K^+]o (10, 30 and 120 mM). This protocol is illustrated in FIGS. 3 and 4. The resulting contractions were measured (see below) and expressed as a percentage of corresponding initial responses to high [K^+]o evoked in the presence of L-type Ca^2+ agonists (i.e. before exposure to L-type Ca^2+ antagonists). […] Subsequent analysis (see below) was between contractions of drug-treated tissues and time-matched controls • (c) Determine the inhibitory potencies (IC50 values) of various diphenylalkylamines and phenothiazines and conventional L-type Ca^2+ antagonists (nifedipine and methoxyverapamil) against contractions evoked in longitudinal and circular muscle of human vas deferens by high [K^+]o (120 mM) in the presence of FPL 64176. In these experiments, tissues were stimulated with high [K^+]o (120 mM); sequentially in normal Krebs' medium and after 25-30 min exposure to the L-type Ca^2+ agonist, FPL 64176, (1 μM, Initial response). […]
# [7] = test system: longitudinal muscle of human vas deferens; assay: IC50 against contractions evoked by high K+ (120 mM) in the presence of FPL 64176, longitudinal muscle strips; conditions: contractions evoked by K+ (120 mM) in the presence of FPL 64176 (1 μM), means ± S.E.M.
# Source text: as §1, with “5-10” for “5-8”, “3” for “˜3”, “Harvard-type” for “Harvard type”
# as §3
compound,measurement,setting,value
CC(NCCN(c1ccccc1)c1ccccc1)c1ccccc1 (centres unmarked) [NIBA(14)XN10],IC50,[1],15 µM
same,relative effectiveness against longitudinal and circular muscle contractions,[1]; contractions evoked by high [K+]o,more effective against longitudinal than circular muscle contractions
same,Selectivity [(C/L)-1],[1],5.1
same,IC50,[2],91 µM
CN1CCCC1CCN(c1ccccc1)c1ccccc1 (centres unmarked) [NIBA(53)XN16],IC50,[1],4.5 µM
same,Selectivity [(C/L)-1],[1],1.4
same,IC50,[2],11 µM
"CC(COc1ccccc1)N(CCCl)Cc1ccccc1 (centres unmarked) [PBZ, phenoxybenzamine]",effect on sperm emission (contraceptive side effect),[3]; clinical studies,reversibly inhibit sperm emission
same,"effects on libido, erection, orgasmic sensation, blood pressure, hormonal balance",[3]; clinical studies,"without effects on libido, penile erection, orgasmic sensation and more importantly blood pressure or hormonal balance"
"O=c1[nH]c2ccccc2n1C1CCN(CCCC(c2ccc(F)cc2)c2ccc(F)cc2)CC1 [Pimozide, pimozide]",inhibition at 10 µM,"[4]; Homo sapiens, drug 10 μM",71%
same,inhibition at 10 µM,"[5]; Homo sapiens, drug 10 μM",55%
same,IC50,[6]; Homo sapiens,8.9 ± 3.1 µM
same,IC50,[7]; Homo sapiens,4.4 ± 0.6 µM
"CN1CCCCC1CCN1c2ccccc2Sc2ccc(S(C)(=O)=O)cc21 (centres unmarked) [Sulphoridazine, sulphoridazine]",IC50,[6],14.1 ± 4.9 µM
same,IC50,[7],15.9 ± 2.9 µM
"CSc1ccc2c(c1)N(CCC1CCCCN1C)c1ccccc1S2 (centres unmarked) [Thioridazine, thioridazine hydrochloride]",time to inhibition of sperm emission after drug administration,[3]; even at sub therapeutic doses,≤ 24 h
"CN1CCN(CCCN2c3ccccc3Sc3ccc(C(F)(F)F)cc32)CC1 [Trifluoperazine, trifluoperazine dihydrochloride]",IC50,[6]; Homo sapiens,10.2 ± 3 µM
same,IC50,[7]; Homo sapiens,20.7 ± 5.4 µM
same,effect on sperm emission (contraceptive side effect),[3]; clinical studies,lack the contraceptive side-effect
(−)-methoxyverapamil hydrochloride,inhibition of longitudinal muscle contractions,[4]; drug 1.0 μM,93-98%
same,inhibition of circular muscle contractions,[5]; drug 1.0 μM,93-98%
same,IC50,[6],0.0181 ± 0.0038 µM
same,IC50,[7],0.016 ± 0.0009 µM
